The source of these data is patent publication US11666589B2, “Pivarubicin and benzarubicin compositions” (Paradox Pharmaceuticals, Inc., priority 2020, dated 2023).

Molecules are shown by their SMILES.

Series [1] deals with 32D.3 murine myeloid cells. The experiment in a line: Drug biotransformation analysis (HPLC of intracellular drug) in 32D.3 cells. It counts as in vitro ADME. From the text: (§1) Intracellular drug was extracted and analyzed by fluorescence HPLC as described previously.
The subject of series [2] is 32D.3, J774.2 and 293 cells. The experiment in a line: Biotransformation to AD 288 after uptake into cells. The class given is in vitro ADME. The note with it: 8 hours after drug uptake into cells.
Excerpt: as §1

Series [3] concerns J774.2 murine macrophage-like cells. Kind of series: Drug biotransformation analysis (HPLC of intracellular drug) in J774.2 cells. The class given is in vitro ADME.
Excerpt: as §1

For series [4], the system named is 293 embryonic human kidney cells. The experiment in a line: Drug biotransformation analysis (HPLC of intracellular drug) in 293 cells. The class given is in vitro ADME.
Excerpt: as §1

The next series has as its system CEM/VLB-100. Particulars: CEM/VLB-100, selecting drug; cited from earlier work.
In another series the test system is CEM/VLB-10. Particulars: CEM/VLB-10, selecting drug; cited from earlier work.

On to `CCCCC(=O)OCC(=O)[C@]1(O)Cc2c(O)c3c(c(O)c2[C@@H](O[C@H]2C[C@H](NCc4ccccc4)[C@H](O)[C@H](C)O2)C1)C(=O)c1c(OC)cccc1C3=O` [AD 198, N-Benzyladriamycin-14-valerate], for which the “% Parent Compound” value in series [1] (32D.3, 1 hr, 1 μM drug, 37° C.) worked out at 90%; in series [1] (32D.3, 8 hr (1 hr drug + 7 hours drug-free medium)), 56%; in series [3] (J774.2, 1 hr, 1 μM drug, 37° C.), 90%; in series [3] (J774.2, 8 hr (1 hr drug + 7 hours drug-free medium)) it was 50%; in series [4] (293, 1 hr, 1 μM drug, 37° C.), 80%; in series [4] (293, 8 hr (1 hr drug + 7 hours drug-free medium)) it was 50%. For the same molecule, in series [2], the “biotransformation to N-benzyladriamycin (AD 288)” value was “approximately 50%”.

Regarding `CC[C@]1(O)C[C@@H]2CN(CCc3c([nH]c4ccccc34)[C@@](C(=O)OC)(c3cc4c(cc3OC)N(C)[C@H]3[C@@](O)(C(=O)OC)[C@H](OC(C)=O)[C@]5(CC)C=CCN6CC[C@]43[C@@H]65)C2)C1` [vinblastine], the values for the resistance with CEM/VLB-100 and in the series with CEM/VLB-10 were 269 fold and 10.6 fold, respectively.
